Experimental data: ChEMBL document CHEMBL1141848, “Prenylagaramides A and B, new cyclic peptides from two strains of oscillatoria agardhii” (J Nat Prod, 1999)
Calls of active or inactive are those of the source. Residues, ends and D or L forms follow the SMILES beside them. *: point of attachment. Prenyl = CC(C)=CC*

How the values were obtained:
[1] = Inhibition of trypsin
[2] = molecular target: Prothrombin (Homo sapiens) (UniProt P00734); assay: Inhibition of thrombin
[3] = molecular target: Plasminogen (Homo sapiens) (UniProt P00747); assay: Inhibition of plasmin
Sequence of Plasminogen (Homo sapiens) (P00747 97-580 limits assumed): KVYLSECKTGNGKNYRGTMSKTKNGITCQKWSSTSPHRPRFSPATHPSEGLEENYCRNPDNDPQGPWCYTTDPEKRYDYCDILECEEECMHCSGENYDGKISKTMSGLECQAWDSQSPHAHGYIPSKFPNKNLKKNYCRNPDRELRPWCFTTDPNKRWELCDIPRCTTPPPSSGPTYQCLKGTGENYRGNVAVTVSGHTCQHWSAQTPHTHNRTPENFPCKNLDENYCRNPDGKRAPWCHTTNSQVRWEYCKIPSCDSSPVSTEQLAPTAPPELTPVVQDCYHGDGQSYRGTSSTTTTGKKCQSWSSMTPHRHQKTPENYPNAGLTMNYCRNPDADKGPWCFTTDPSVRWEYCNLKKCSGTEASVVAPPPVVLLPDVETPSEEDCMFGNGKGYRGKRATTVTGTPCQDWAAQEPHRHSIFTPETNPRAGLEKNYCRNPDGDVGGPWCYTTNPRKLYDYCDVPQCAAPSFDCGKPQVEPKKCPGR
Sequence of Plasminogen (Homo sapiens) (P00747 581-810 limits assumed): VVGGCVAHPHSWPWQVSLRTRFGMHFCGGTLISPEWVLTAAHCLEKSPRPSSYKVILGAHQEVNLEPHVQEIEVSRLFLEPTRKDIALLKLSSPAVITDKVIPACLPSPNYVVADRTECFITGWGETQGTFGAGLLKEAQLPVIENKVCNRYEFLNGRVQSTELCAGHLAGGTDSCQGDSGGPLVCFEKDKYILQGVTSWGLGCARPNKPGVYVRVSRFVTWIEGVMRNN

[4] = Inhibition of chymotrypsin
[5] = Inhibition of elastase
[6] = molecular target: Cytosol aminopeptidase (Homo sapiens) (UniProt P28838); assay: Inhibition of leucine amino peptidase
Sequence of Cytosol aminopeptidase (Homo sapiens) (P28838 whole entry): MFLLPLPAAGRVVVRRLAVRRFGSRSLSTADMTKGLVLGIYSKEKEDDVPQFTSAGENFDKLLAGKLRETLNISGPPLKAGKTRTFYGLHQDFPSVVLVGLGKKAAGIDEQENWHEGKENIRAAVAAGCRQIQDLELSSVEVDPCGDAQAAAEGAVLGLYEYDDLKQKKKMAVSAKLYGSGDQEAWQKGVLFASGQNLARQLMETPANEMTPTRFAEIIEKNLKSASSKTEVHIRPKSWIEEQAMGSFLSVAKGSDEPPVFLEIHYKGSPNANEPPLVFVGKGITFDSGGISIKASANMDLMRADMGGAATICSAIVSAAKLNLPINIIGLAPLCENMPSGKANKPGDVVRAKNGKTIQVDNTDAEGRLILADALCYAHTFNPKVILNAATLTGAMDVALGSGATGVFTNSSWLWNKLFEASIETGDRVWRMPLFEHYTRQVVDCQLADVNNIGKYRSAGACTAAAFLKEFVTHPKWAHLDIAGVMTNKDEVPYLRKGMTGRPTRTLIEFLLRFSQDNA

[7] = molecular target: T1, Papain (Carica papaya) (UniProt P00784); assay: Inhibition of papaya papain
T1 sequence (whole entry): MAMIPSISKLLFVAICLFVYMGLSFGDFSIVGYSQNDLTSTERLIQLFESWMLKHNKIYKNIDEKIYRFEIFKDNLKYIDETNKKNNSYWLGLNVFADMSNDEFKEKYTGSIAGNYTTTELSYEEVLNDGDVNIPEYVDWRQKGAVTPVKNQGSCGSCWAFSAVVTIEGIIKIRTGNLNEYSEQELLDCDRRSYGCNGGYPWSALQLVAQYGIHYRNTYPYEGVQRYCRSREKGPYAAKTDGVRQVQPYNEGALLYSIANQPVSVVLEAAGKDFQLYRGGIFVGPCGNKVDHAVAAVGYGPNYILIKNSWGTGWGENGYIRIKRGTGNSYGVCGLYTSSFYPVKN

[8] = test system: P388; assay: Cytotoxicity against mouse P388 cells; format: functional, cell-based

Measured: Activity

CC(C)=CCOc1ccc(C[C@@H]2NC(=O)[C@@H]3CCCN3C(=O)[C@H](CC(N)=O)NC(=O)[C@H](Cc3ccccc3)NC(=O)[C@H](Cc3ccccc3)NC(=O)[C@H](CCC(=O)O)NC(=O)CNC(=O)[C@H]([C@@H](C)O)NC(=O)CNC2=O)cc1 (cyclo(EFFNPY(Prenyl)GTG))
inactive: [1] | [2] | [3] | [4] | [5] | [6] | [7] | [8]

CC[C@H](C)[C@@H]1NC(=O)[C@@H]2CCCN2C(=O)[C@H](Cc2ccc(O)cc2)NC(=O)[C@H](CC(C)C)NC(=O)[C@H](Cc2ccc(OCC=C(C)C)cc2)NC(=O)[C@@H]2CCCN2C(=O)[C@H](CC(N)=O)NC1=O (cyclo(INPY(Prenyl)LYP))
inactive: [1] | [2] | [3] | [4] | [5] | [6] | [7] | [8]
